In patent publication US4739106A, “3-amino-3-carbamoyloxyalkylacrylic acid intermediates to dihydropyridines” (Banyu Pharmaceutical Co., Ltd., priority 1982, dated 1988):
Values after ≈ are worked out from the molar mass of the structure shown.

Columns and labels:
[1] = system: cerebral blood flow and peripheral blood flow; test: Separate pharmacological test: cerebral and peripheral blood flow, i.v.; assay type: in vivo; settings: 1 to 10 μg/kg intravenously
[2] = Acute toxicity, i.v., DM strain male mice, up-and-down method; settings: mouse, in vivo, iv
[3] = system: isolated hearts of rabbits (coronary vessels); test: Coronary vasodilation, Langendorff method, isolated hearts of rabbits; settings: Oryctolagus cuniculus, dosage of a sample required to increase the coronary outflow by 50%, isolated rabbit hearts, read-out: Coronary vasodilation ICD50
Description: (a) Coronary vasodilation
According to Langendorff method (O. Langendorff; Pflugers arch. ges. phisiol., 61, 291-332 (1895)), the coronary vasodilation effects were tested using isolated hearts of rabbits. The strength of coronary vasodilation was evaluated by ICD50 (g/ml) i.e. the dosage of a sample required to increase the coronary outflow by 50%.

Beagle dogs = test: Coronary effects on anesthetized beagle dogs (CF, FAF, BP, HR), i.v.; assay type: in vivo, dog (beagle); settings: for CF % increase: coronary blood flow; for CF % increase / FAF % increase / HR % increase: vs saline control; for FAF % increase: femoral artery blood flow; for HR % increase: heart rate; for BP % decrease: systemic blood pressure, vs control
Description: (c) Coronary effects on dogs
Beagle dogs (13 to 16 kg, .male.) were subjected to thoracotomy under anesthesia with sodium pentobarbital, and a probe was attached to the heart left coronary anterior descending artery of each animal, whereupon the coronary blood flow (CF) was measured by an electromagnetic flowmeter. On the other hand, a probe was attached to the exposed right femoral artery, and the femoral artery blood flow (FAF) was measured by an electromagnetic flowmeter. A canule was inserted to the left femoral artery, and the systemic blood pressure (BP) was bloody measured by a transducer.
The heart rate (HR) was measured by an electrocardiogram.
The sample solution was intravenously injected to the right femoral vein.
The coronary blood flow (CF), the femoral artery blood flow (FAF) and the heart rate (HR) were represented by a % increase upon the injection of each sample as compared with the respective control value upon the injection of a saline.
The systemic blood pressure (BP) was represented by a % decrease as compared with the control.

## CCOC(=O)C1=C(C)NC(COC(N)=O)=C(C(=O)OCC)C1c1cccc([N+](=O)[O-])c1 (stereo not drawn) [(1), 2-Carbamoyloxymethyl-6-methyl-4-(m-nitrophenyl)-3,5-diethoxycarbonyl-1,4-dihydropyridine]
[1]
  Increase of cerebral blood flow: 40 to 50%
  Increase of peripheral blood flow: 40 to 50%

## CCOC(=O)C1=C(C)NC(COC(=O)NC)=C(C(=O)OCC)C1c1cccc([N+](=O)[O-])c1 (stereo not drawn) [(2)]
[2]
  LD50: 71 mg/kg
[3]
  EC50: 0.32 µg/mL (≈ 0.715 µM)

## CNC(=O)OCC1=C(C(=O)OC)C(c2cccc([N+](=O)[O-])c2)C(C(=O)OC)=C(C)N1 (stereo not drawn) [(4)]
[2]
  LD50: 84 mg/kg
[3]
  EC50: 0.36 µg/mL (≈ 0.858 µM)

## CCOC(=O)C1=C(C)NC(COC(N)=O)=C(C(=O)OCC)C1c1ccccc1[N+](=O)[O-] (stereo not drawn) [(5), 2-Carbamoyloxymethyl-6-methyl-4-(o-nitrophenyl)-3,5-diethoxycarbonyl-1,4-dihydropyridine]
Beagle dogs; 1 μg/kg i.v.
  CF % increase: 13%
  FAF % increase: 8%
  HR % increase: 0%
  BP % decrease: 0%
Beagle dogs; 3 μg/kg i.v.
  CF % increase: 38%
  FAF % increase: 35%
  HR % increase: 0%
  BP % decrease: 2%
Beagle dogs; 10 μg/kg i.v.
  CF % increase: 86%
  FAF % increase: 82%
  HR % increase: -10%
  BP % decrease: 22%

## CCCOCCOC(=O)C1=C(C)NC(COC(N)=O)=C(C(=O)OCCOCCC)C1c1cccc([N+](=O)[O-])c1 (stereo not drawn) [(12), 2-Carbamoyloxymethyl-6-methyl-4-(m-nitrophenyl)-3,5-bis[(β-propoxyethoxy)carbonyl]-1,4-dihydropyridine]
[1]
  Increase of cerebral blood flow: 40 to 50%
  Increase of peripheral blood flow: 40 to 50%

## CCCOCCOC(=O)C1=C(C)NC(COC(=O)NC)=C(C(=O)OCCOCCC)C1c1cccc([N+](=O)[O-])c1 (stereo not drawn) [(13), 2-N--Methylcarbamoyloxymethyl,-6-methyl-4-(m-nitrophenyl)-3,5-bis[(β-propoxyethoxy)carbonyl]-1,4-dihydropyridine]
[1]
  Increase of cerebral blood flow: 40 to 50%
  Increase of peripheral blood flow: 40 to 50%

## COC(=O)C1=C(COC(N)=O)NC(C)=C(C(=O)OCCN(C)Cc2ccccc2)C1c1cccc([N+](=O)[O-])c1 (stereo not drawn) [(15), 2-Carbamoyloxymethyl-6-methyl-4-(m-nitrophenyl)-3-methoxycarbonyl-5-(β-N--methylbenzylaminoethoxy)carbonyl-1,4-dihydropyridine]
[2]
  LD50: 200 mg/kg

## COC(=O)C1=C(COC(N)=O)NC(C)=C(C(=O)OCCN2CCOCC2)C1c1cccc([N+](=O)[O-])c1 (stereo not drawn) [(18), 2-Carbamoyloxymethyl-6-methyl-4-(m-nitrophenyl)-3-methoxycarbonyl-5-(β-morpholinoethoxy)carbonyl-1,4-dihydropyridine]
[2]
  LD50: 200 mg/kg
